Earlier results on 1 molecule are cited in US20250169531A1 (priority 2023, published 2025).

Structures are written as SMILES.

For the series the following is noted: at 25° C.

Consider `CN1CCCC1c1cccnc1` (stereo not shown) [Nicotine], for which the “pka of the nitrogen of the pyridine ring” value is given as 3.41.
